This is an account of results in patent US10287301B2 (Achillion Pharmaceuticals, Inc., priority 2015, dated 2019).

A value given as a limit tells only on which side of the number the result lay.

Human Factor D, sequence (P00746 26-253): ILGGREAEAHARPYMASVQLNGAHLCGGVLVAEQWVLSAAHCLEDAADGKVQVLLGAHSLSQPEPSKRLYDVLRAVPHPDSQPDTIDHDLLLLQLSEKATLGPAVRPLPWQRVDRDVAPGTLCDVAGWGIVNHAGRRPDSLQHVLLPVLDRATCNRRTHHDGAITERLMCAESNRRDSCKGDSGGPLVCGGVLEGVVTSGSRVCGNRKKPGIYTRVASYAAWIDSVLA

The target of the test is Human Factor D (Homo sapiens (Human), UniProt P00746). The test is described as follows: Human Factor D Assay. The class given is biochemical. To be noted: Human Factor D assay of Example 8; Table 2; read-out: IC50. The procedure, abridged:
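First, compound at various concentrations is mixed with 80 nM (final) human serum Factor D in 50 mM Tris, 1M NaCl, pH 7.5 for 5 min at room temperature.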
In the case of `CC(=O)c1nn(CC(=O)N2C[C@H](F)C[C@H]2C(=O)Nc2cccc(Br)n2)c2ccc(-c3cnc4cc(C(N)=O)nn4c3)cc12` [Compound 288, 6-(3-Acetyl-1-(2-((2S,4R)-2-((6-Bromopyridin-2-yl)carbamoyl)-4-fluoropyrrolidin-1-yl)-2-oxoethyl)-1H-indazol-5-yl)pyrazolo[1,5-a]pyrimidine-2-carboxamide], the IC50 was less than 1000 nM.
Regarding `CC(=O)c1nn(CC(=O)N2C[C@H](F)C[C@H]2C(=O)Nc2cccc(Br)n2)c2ccc(-c3cnc4cc(C(=O)O)nn4c3)cc12` [Compound 289, 6-(3-acetyl-1-(2-((2S,4R)-2-(6-bromopyridin-2-ylcarbamoyl)-4-fluoropyrrolidin-1-yl)-2-oxoethyl)-1H-indazol-5-yl)pyrazolo[1,5-a]pyrimidine-2-carboxylic acid], the IC50 was less than 1000 nM.
Next, `COCCOCCNC(=O)c1cc2ncc(-c3ccc4c(c3)c(C(C)=O)nn4CC(=O)N3C[C@H](F)C[C@H]3C(=O)Nc3cccc(Br)n3)cn2n1` [Compound 290, 6-(3-acetyl-1-(2-((2S,4R)-2-(6-bromopyridin-2-ylcarbamoyl)-4-fluoropyrrolidin-1-yl)-2-oxoethyl)-1H-indazol-5-yl)-N-(2-(2-methoxyethoxy)ethyl)pyrazolo[1,5-a]pyrimidine-2-carboxamide]: less than 1000 nM; `CC(=O)c1nn(CC(=O)N2C[C@H](F)C[C@H]2C(=O)Nc2cccc(Br)n2)c2ccc(-c3n[nH]c4ccsc34)cc12` [Compound 291, (2S,4R)-1-(2-(3-Acetyl-5-(1H-thieno[3,2-c]pyrazol-3-yl)-1H-indazol-1-yl)acetyl)-N-(6-bromopyridin-2-yl)-4-fluoropyrrolidine-2-carboxamide]: less than 1000 nM.
To `CC(=O)n1cc(NC(=O)N2C[C@H](F)C[C@H]2C(=O)Nc2cccc(Br)n2)c2ccc(-c3cnc(C)nc3)cc21` [Compound 292, (2S,4R)-N1-(1-acetyl-6-(2-methylpyrimidin-5-yl)-1H-indol-3-yl)-N2-(6-bromopyridin-2-yl)-4-fluoropyrrolidine-1,2-dicarboxamide] belongs less than 1000 nM; to `CC(=O)n1cc(NC(=O)N2C[C@H](F)C[C@H]2C(=O)Nc2cccc(-c3ccccc3Cl)c2F)c2ccc(-c3cnc(C)nc3)cc21` [Compound 293], less than 1000 nM; to `CC(=O)c1nn(CC(=O)N2CC=C[C@H]2C(=O)Nc2cccc(Br)n2)c2ccc(-c3cnc(C)nc3)cc12` [Compound 294, (S)-1-(2-(3-acetyl-5-(2-methylpyrimidin-5-yl)-1H-indazol-1-yl)acetyl)-N-(6-bromopyridin-2-yl)-2,5-dihydro-1H-pyrrole-2-carboxamide], less than 1000 nM.
Turning to `CC(=O)c1nn(CC(=O)N2C[C@H](F)C[C@H]2C(=O)Nc2cccc(-c3cccc(S(C)(=O)=O)c3)c2F)c2ccc(-c3cnc(C)nc3)cc12` [Compound 295, (2S,4R)-1-(2-(3-Acetyl-5-(2-methylpyrimidin-5-yl)-1H-indazol-1-yl)acetyl)-4-fluoro-N-(2-fluoro-3′-(methylsulfonyl)-[1,1′-biphenyl]-3-yl)pyrrolidine-2-carboxamide], the IC50 is less than 1000 nM.
Next, `CC(=O)c1nn(CC(=O)N2C[C@H](F)C[C@H]2C(=O)Nc2cccc(-c3ccccc3Cl)c2F)c2ccc(-c3cnc4cc(C)nn4c3)cc12` [Compound 296, (2S,4R)-1-(2-(3-acetyl-5-(2-methylpyrazolo[1,5-a]pyrimidin-6-yl)-1H-indazol-1-yl)acetyl)-N-(2′-chloro-2-fluorobiphenyl-3-yl)-4-fluoropyrrolidine-2-carboxamide]: less than 1000 nM.
With `CC(=O)c1nn(CC(=O)N2C[C@H](F)C[C@H]2C(=O)Nc2cccc(Br)n2)c2ccc(-c3nc4c(s3)CCCC4)cc12` [Compound 297], the IC50 was more than 10000 nM.
In the case of `CC(=O)c1cn(CC(=O)N2[C@@H]3C[C@@H]3C[C@H]2C(=O)Nc2cccc(Br)n2)c2ccc(-c3cnc4cc(C)nn4c3)cc12` [Compound 298, (1R,3S,5R)-2-(2-(3-acetyl-5-(2-methylpyrazolo[1,5-a]pyrimidin-6-yl)-1H-indol-1-yl)acetyl)-N-(6-bromopyridin-2-yl)-2-azabicyclo[3.1.0] hexane-3-carboxamide], the IC50 is less than 1000 nM.
For `CC(=O)c1cn(CC(=O)N2C[C@H](F)C[C@H]2C(=O)NCc2cccc(Cl)c2F)c2ccc(-c3cnc4cc(C)nn4c3)cc12` [Compound 299, (2S,4R)-1-(2-(3-acetyl-5-(2-methylpyrazolo[1,5-a]pyrimidin-6-yl)-1H-indol-1-yl)acetyl)-N-(3-chloro-2-fluorobenzyl)-4-fluoropyrrolidine-2-carboxamide], the IC50 is less than 1000 nM.
Turning to `CC(=O)c1cn(CC(=O)N2C[C@H](F)C[C@H]2C(=O)Nc2cccc(-c3ccccc3Cl)c2F)c2ccc(-c3cnc4cc(C)nn4c3)cc12` [Compound 300, (2S,4R)-1-(2-(3-acetyl-5-(2-methylpyrazolo[1,5-a]pyrimidin-6-yl)-1H-indol-1-yl)acetyl)-N-(2′-chloro-2-fluorobiphenyl-3-yl)-4-fluoropyrrolidine-2-carboxamide], the IC50 is less than 1000 nM.
Next, `CC(=O)c1cn(CC(=O)N2C[C@H](F)C[C@H]2C(=O)Nc2cccc(C(F)(F)F)n2)c2ccc(-c3cnc4cc(C)nn4c3)cc12` [Compound 301, (2S,4R)-1-(2-(3-acetyl-5-(2-methylpyrazolo[1,5-a]pyrimidin-6-yl)-1H-indol-1-yl)acetyl)-4-fluoro-N-(6-(trifluoromethyl)pyridin-2-yl)pyrrolidine-2-carboxamide]: less than 1000 nM.
Next, `CC(=O)c1nn(CC(=O)N2C[C@H](F)C[C@H]2C(=O)Nc2cccc(Br)n2)c2ccc(-c3cnc4cccnn34)cc12` [Compound 302, (2S,4R)-1-(2-(3-acetyl-5-(imidazo[1,2-b]pyridazin-3-yl)-1H-indazol-1-yl)acetyl)-N-(6-bromopyridin-2-yl)-4-fluoropyrrolidine-2-carboxamide]: less than 1000 nM; `CC(=O)c1nn(CC(=O)N2C[C@H](F)C[C@H]2C(=O)Nc2cccc(Br)n2)c2ccc(-c3ccc4nccn4n3)cc12` [Compound 303, (2S,4R)-1-(2-(3-acetyl-5-(imidazo[1,2-b]pyridazin-6-yl)-1H-indazol-1-yl)acetyl)-N-(6-bromopyridin-2-yl)-4-fluoropyrrolidine-2-carboxamide]: less than 1000 nM; `CC(=O)c1nn(CC(=O)N2C[C@H](F)C[C@H]2C(=O)Nc2cccc(Br)n2)c2ccc(-c3cnn4ccnc4c3)cc12` [Compound 304, (2S,4R)-1-(2-(3-acetyl-5-(imidazo[1,2-b]pyridazin-7-yl)-1H-indazol-1-yl)acetyl)-N-(6-bromopyridin-2-yl)-4-fluoropyrrolidine-2-carboxamide]: less than 1000 nM.
Turning to `CC(=O)c1nn(CC(=O)N2C[C@H](F)C[C@H]2C(=O)Nc2cccc(-c3cc(F)ccc3S(C)(=O)=O)c2F)c2ccc(-c3cnc(C)nc3)cc12` [Compound 305, (2S,4R)-1-(2-(3-Acetyl-5-(2-methylpyrimidin-5-yl)-1H-indazol-1-yl)acetyl)-N-(2,5′-difluoro-2′-(methylsulfonyl)-[1,1′-biphenyl]-3-yl)-4-fluoropyrrolidine-2-carboxamide], the IC50 was less than 1000 nM.
In the case of `CC(=O)c1nn(CC(=O)N2C[C@H](F)C[C@H]2C(=O)Nc2cncc(Br)n2)c2ccc(-c3cnc4cc(C)nn4c3)cc12` [Compound 306, (2S,4R)-1-(2-(3-acetyl-5-(2-methylpyrazolo[1,5-a]pyrimidin-6-yl)-1H-indazol-1-yl)acetyl)-N-(6-bromopyrazin-2-yl)-4-fluoropyrrolidine-2-carboxamide], the IC50 is less than 1000 nM.
Consider `Cc1ncc(-c2ccc3c(c2)c(C(N)=O)cn3CC(=O)N2C[C@H](F)C[C@H]2C(=O)Nc2cccc(Br)n2)cn1` [Compound 307, 1-(2-((2S,4R)-2-(6-bromopyridin-2-ylcarbamoyl)-4-fluoropyrrolidin-1-yl)-2-oxoethyl)-5-(2-methylpyrimidin-5-yl)-1H-indole-3-carboxamide], for which the IC50 is less than 1000 nM.
Next, `CC(=O)c1nn(CC(=O)N2CCS[C@H]2C(=O)Nc2cccc(Br)n2)c2ccc(-c3cnc(C)nc3)cc12` [Compound 308, (S)-3-(2-(3-acetyl-5-(2-methylpyrimidin-5-yl)-1H-indazol-1-yl)acetyl)-N-(6-bromopyridin-2-yl)thiazolidine-2-carboxamide]: less than 1000 nM; `CC(=O)c1nn(CC(=O)N2C[C@H](F)C[C@H]2C(=O)Nc2cccc(Br)n2)c2ccc(-c3cnc4n3CCCC4)cc12` [Compound 309, (2S,4R)-1-(2-(3-acetyl-5-(5,6,7,8-tetrahydroimidazo [1,2-a]pyridin-3-yl)-1H-indazol-1-yl)acetyl)-N-(6-bromopyridin-2-yl)-4-fluoropyrrolidine-2-carboxamide]: less than 1000 nM.
Regarding `CC(=O)c1cn(CC(=O)N2C[C@H](F)C[C@H]2C(=O)Nc2cncc(Br)n2)c2ccc(-c3cnc4cc(C)nn4c3)cc12` [Compound 310, (2S,4R)-1-(2-(3-acetyl-5-(2-methylpyrazolo[1,5-a]pyrimidin-6-yl)-1H-indol-1-yl)acetyl)-N-(6-bromopyrazin-2-yl)-4-fluoropyrrolidine-2-carboxamide], the IC50 was less than 1000 nM.
For `CC(=O)c1nn(CC(=O)N2C[C@H](F)C[C@H]2C(=O)Nc2cccc(Br)n2)c2ccc(-c3ccc4nc(C)nn4c3)cc12` [Compound 311, (2S,4R)-1-(2-(3-acetyl-5-(2-methyl-[1,2,4]triazolo[1,5-a]pyridin-6-yl)-1H-indazol-1-yl)acetyl)-N-(6-bromopyridin-2-yl)-4-fluoropyrrolidine-2-carboxamide], the IC50 was less than 1000 nM.
In the case of `CC(=O)c1nn(CC(=O)N2CSC[C@H]2C(=O)Nc2cccc(Br)n2)c2ccc(-c3cnc(C)nc3)cc12` [Compound 312, (R)-3-(2-(3-acetyl-5-(2-methylpyrimidin-5-yl)-1H-indazol-1-yl)acetyl)-N-(6-bromopyridin-2-yl)thiazolidine-4-carboxamide], the IC50 is less than 1000 nM.
